In DBAASP:
≈ marks a conversion by molar mass, not a printed value. Each block holds one compound with its values, some of them ahead of it.

Tests used:
Assay in all cases: ≥ marks a high value that may be exact or a test limit, other limits are often not marked, values filed in µg/mL are converted to µM
[1] = test system: Pectobacterium carotovorum
[2] = test system: Cryptococcus neoformans ATCC 28957
[3] = test system: Fusarium oxysporum f.sp. vasinfectum
Fusarium oxysporum = test system: Fusarium oxysporum
[4] = test system: Xanthomonas campestris pv. citri
Ramulariopsis gossypii = test system: Ramulariopsis gossypii
[5] = test system: Pseudomonas syringae pv. tabaci
[6] = test system: Escherichia coli ATCC 25922
[7] = test system: Candida albicans ATCC 90028
[8] = test system: Bacillus subtilis ATCC 23857
Trichoderma asperellum = test system: Trichoderma asperellum
Escherichia coli = test system: Escherichia coli
[9] = test system: Campylobacter jejuni NCTC 11161
[10] = test system: Klebsiella pneumoniae Q14-0285
Escherichia coli K-12 = test system: Escherichia coli K-12
[11] = test system: Campylobacter jejuni ATCC 33292
[12] = test system: Pseudomonas aeruginosa ATCC 27853
[13] = test system: Salmonella typhimurium SL1344
[14] = test system: Acinetobacter baumannii ATCC 19606
[15] = test system: Klebsiella pneumoniae Q14-0095
[16] = test system: Pseudomonas aeruginosa PAO1
[17] = test system: Enterococcus faecalis JH-2-2
[18] = test system: Listeria monocytogenes NCTC 11994
[19] = test system: Staphylococcus aureus RN4220
[20] = test system: Staphylococcus aureus ATCC 6538
[21] = test system: Klebsiella pneumoniae NCTC 13442
[22] = test system: Staphylococcus aureus NCTC 12493
[23] = test system: Klebsiella pneumoniae ATCC 700603
Campylobacter jejuni = test system: Campylobacter jejuni
[24] = test system: Pseudomonas aeruginosa Q14-0890
[25] = test system: Staphylococcus aureus USA 300
[26] = test system: Staphylococcus aureus ATCC 33591
[27] = test system: Pseudomonas aeruginosa Q12-0535
[28] = test system: Pseudomonas aeruginosa Q14-0208
[29] = test system: Campylobacter jejuni NCTC 11351
[30] = test system: Staphylococcus aureus MRSA-15
[31] = test system: Acinetobacter baumannii Q13-0717
[32] = test system: Candida albicans 08030809
[33] = test system: Staphylococcus aureus 08032712
[34] = test system: Stenotrophomonas maltophilia
Shigella sp. = test system: Shigella sp.
Klebsiella oxytoca = test system: Klebsiella oxytoca
[35] = test system: Staphylococcus epidermidis
[36] = test system: Candida albicans 08030401
Nocardia asteroides = test system: Nocardia asteroides
[37] = test system: Klebsiella pneumoniae 1400
[38] = test system: Staphylococcus aureus 08032810
Candida glabrata 08A802 = test system: Candida glabrata 08A802
[39] = test system: Enterococcus faecalis 981
[40] = test system: Staphylococcus aureus ATCC 25923
[41] = test system: Candida albicans 08022710
[42] = test system: Salmonella enterica subsp. enterica serovar Paratyphi A
[43] = test system: Enterococcus faecium 1299
[44] = test system: Candida albicans 08030102
Bacillus cereus = test system: Bacillus cereus
[45] = test system: Pseudomonas aeruginosa 08031014
[46] = test system: Staphylococcus aureus 08032706
[47] = test system: Candida glabrata 09050201

- MIC [1]: ≥ 32 µM
- MIC [2]: ≥ 64 µM
- MIC [3]: ≥ 64 µM
- MIC (Fusarium oxysporum): ≥ 256 µM
- MIC [4]: ≥ 32 µM
- MIC (Ramulariopsis gossypii): 16 µM (≈ 31.9 µg/mL)
- MIC [5]: 8 µM (≈ 16 µg/mL)
- MIC [6]: 16 µM (≈ 31.9 µg/mL)
- MIC [7]: ≥ 128 µM
- MIC [8]: 8 µM (≈ 16 µg/mL)
- MIC (Trichoderma asperellum): ≥ 128 µM
SMILES: CC(C)C[C@H](NC(=O)[C@H](C)NC(=O)[C@H](CCCN=C(N)N)NC(=O)[C@@H](NC(=O)[C@H](CCC(N)=O)NC(=O)[C@H](CCCCN)NC(=O)[C@H](CCCCN)NC(=O)[C@H](C)NC(=O)[C@H](CC(C)C)NC(=O)[C@H](CCCCN)NC(=O)[C@H](C)NC(=O)CN)C(C)C)C(=O)NCC(=O)N[C@@H](CCCCN)C(=O)N[C@@H](Cc1ccccc1)C(=O)N[C@@H](Cc1ccccc1)C(=O)N[C@@H](CO)C(=O)N[C@@H](Cc1ccccc1)C(N)=O [GAKLAKKQVRALGKFFSF]

- MIC (Escherichia coli): 26.7 µM (≈ 64 µg/mL)
- MIC [9]: 1.67 µM (≈ 4 µg/mL)
- MIC [10]: 6.66 µM (≈ 16 µg/mL)
- MIC (Escherichia coli K-12): 13.3 µM (≈ 32 µg/mL)
- MIC [11]: 1.67 µM (≈ 4 µg/mL)
- MIC [12]: 26.7 µM (≈ 64 µg/mL)
- MIC [13]: 13.3 µM (≈ 32 µg/mL)
- MIC [14]: 9.42 µM (≈ 22.6 µg/mL)
- MIC [15]: 13.3 µM (≈ 32 µg/mL)
- MIC [16]: 13.3 µM (≈ 32 µg/mL)
- MIC [17]: 13.3 µM (≈ 32 µg/mL)
- MIC [18]: 13.3 µM (≈ 32 µg/mL)
- MIC [19]: 13.3 µM (≈ 32 µg/mL)
- MIC [20]: 13.3 µM (≈ 32 µg/mL)
- MIC [21]: 6.66 µM (≈ 16 µg/mL)
- MIC [22]: 6.66 µM (≈ 16 µg/mL)
- MIC [23]: 6.66 µM (≈ 16 µg/mL)
- MIC (Campylobacter jejuni): 26.7 µM (≈ 64 µg/mL)
- MIC [24]: 13.3 µM (≈ 32 µg/mL)
- MIC [25]: 3.33 µM (≈ 8 µg/mL)
- MIC [26]: 6.66 µM (≈ 16 µg/mL)
- MIC [27]: 26.7 µM (≈ 64 µg/mL)
- MIC [28]: 6.66 µM (≈ 16 µg/mL)
- MIC [29]: 26.7 µM (≈ 64 µg/mL)
- MIC [30]: 13.3 µM (≈ 32 µg/mL)
- MIC [31]: 1.67 µM (≈ 4 µg/mL)
SMILES: CC[C@H](C)[C@H](NC(=O)[C@H](CCCCN)NC(=O)[C@H](CO)NC(=O)[C@H](Cc1c[nH]c2ccccc12)NC(=O)[C@H](CCCN=C(N)N)NC(=O)[C@H](CC(N)=O)NC(=O)[C@H](CCCN=C(N)N)NC(=O)[C@H](CCCN=C(N)N)NC(=O)[C@@H]1CCCN1C(=O)[C@@H](N)CC(C)C)C(=O)N[C@@H](Cc1c[nH]c2ccccc12)C(=O)N[C@@H](CCCCN)C(=O)N[C@@H](CCCCN)C(=O)N[C@H](C(=O)N[C@H](C(=O)N[C@H](C(=O)N[C@H](C(=O)N[C@@H](Cc1ccccc1)C(=O)N[C@@H](CO)C(=O)O)C(C)C)[C@@H](C)O)C(C)C)C(C)C [LPRRNRWSKIWKKVVTVFS]

- MIC [32]: 5.37 µM (≈ 18.8 µg/mL)
- MIC [33]: 5.37 µM (≈ 18.8 µg/mL)
- MIC (Escherichia coli): 5.37 µM (≈ 18.8 µg/mL)
- MIC [34]: 5.37 µM (≈ 18.8 µg/mL)
- MIC (Shigella sp.): 1.34 µM (≈ 4.69 µg/mL)
- MIC (Klebsiella oxytoca): 5.37 µM (≈ 18.8 µg/mL)
- MIC [35]: 5.37 µM (≈ 18.8 µg/mL)
- MIC [36]: 2.69 µM (≈ 9.38 µg/mL)
- MIC (Nocardia asteroides): 2.69 µM (≈ 9.38 µg/mL)
- MIC [37]: 7.49 µM (≈ 26.2 µg/mL)
- MIC [38]: 5.37 µM (≈ 18.8 µg/mL)
- MIC (Candida glabrata 08A802): 2.69 µM (≈ 9.38 µg/mL)
- MIC [12]: 5.37 µM (≈ 18.8 µg/mL)
- MIC [6]: 5.37 µM (≈ 18.8 µg/mL)
- MIC [39]: 10.7 µM (≈ 37.5 µg/mL)
- MIC [40]: 5.37 µM (≈ 18.8 µg/mL)
- MIC [41]: 5.37 µM (≈ 18.8 µg/mL)
- MIC [42]: 10.7 µM (≈ 37.5 µg/mL)
- MIC [43]: 5.37 µM (≈ 18.8 µg/mL)
- MIC [44]: 5.37 µM (≈ 18.8 µg/mL)
- MIC (Bacillus cereus): 2.69 µM (≈ 9.38 µg/mL)
- MIC [45]: 2.69 µM (≈ 9.38 µg/mL)
- MIC [46]: 5.37 µM (≈ 18.8 µg/mL)
- MIC [47]: 5.37 µM (≈ 18.8 µg/mL)
SMILES: CC[C@H](C)[C@H](NC(=O)[C@H](CCCN=C(N)N)NC(=O)[C@H](Cc1c[nH]c2ccccc12)NC(=O)CNC(=O)[C@H](Cc1ccc(O)cc1)NC(=O)[C@H](CCCN=C(N)N)NC(=O)[C@H](CCCN=C(N)N)NC(=O)[C@H](C)NC(=O)[C@H](Cc1ccccc1)NC(=O)[C@H](CCCN=C(N)N)NC(=O)CNC(=O)[C@H](C)NC(=O)CNC(=O)[C@H](CCCN=C(N)N)NC(=O)[C@@H](NC(=O)[C@H](Cc1ccccc1)NC(=O)[C@H](CCCN=C(N)N)NC(=O)[C@H](CCCN=C(N)N)NC(=O)[C@H](Cc1c[nH]c2ccccc12)NC(=O)[C@H](CCCN=C(N)N)NC(=O)[C@H](CO)NC(=O)[C@H](CCCN=C(N)N)NC(=O)[C@@H](N)[C@@H](C)O)[C@@H](C)CC)C(=O)N[C@@H](C)C(=O)N[C@@H](CC(C)C)C(=O)NCC(=O)N[C@@H](CC(C)C)C(=O)N[C@H](C(=O)NCC(=O)O)C(C)C [TRSRWRRFIRGAGRFARRYGWRIALGLVG]
